Source: patent US8048840B2, “Ether compound” (Kao Corporation, priority 2007, dated 2011)

Assay: Emulsification of a mixture of water and oil
Format: physicochemical
Conditions: with addition of the compound
From the text: Therefore, it is understood that the novel ether compound of the present invention has good water-solubility. It was confirmed that a mixture of water and oil was emulsified with addition of the compound a1-1.

emulsification of a mixture of water and oil: emulsified
Substance: dendrimer type tetraglycidyl polylauryl ether [a1-1]
